One series relates to DC-SIGN+ Raji cells. Kind of series: Liposome binding assay, flow cytometry. It counts as cell-based. The method, then:
(§1) If not stated otherwise, all media and supplements for cell culture experiments were purchased from Thermo Fisher Scientific. Raji, THP-1 and U937 cell lines (ATCC) were grown in complete growth medium containing RPMI1640 medium, 10% FCS, 100 U mL-1 Penicillin-Streptomycin and GlutaMax at 37°C and 5% CO2. Cells were monitored with a light microscope (IT40 5PH, VWR) and subcultured every 2 -3 days to maintain cell densities ranging from of 0.5 - 3 x 10^6 cells per mL.
(§2) CLR-expressing cell lines were generated as described before.4,27 Briefly, DC-SIGN, Langerin, murine Langerin and murine Dectin-1 cDNAs (Sinobiologicals) were cloned into a lentiviral BIC-PGK-Zeo-T2a-mAmetrine:EF1A construct by Gibson assembly (NEB) according to the manufacturer’s protocol. HEK293 cells were transfected with the lentiviral vector together with third-generation packaging vectors and viral particles were then used for transduction of Raji cells. In analogy, DC-SIGN and Langerin-expressing THP-1 and U937 cell lines were generated by lentiviral transduction.
(§3) Liposome binding assay – flow cytometry
(§4) Liposome binding to CLR-expressing cells was assayed as previously described.27 Briefly, 0.05 x 10^6 cells were plated in transparent conical-bottom 96 well microtiter plates (Nunc) in a volume of 100 µL medium. Plates were centrifuged at 500 x g for 3 minutes, supernatant was aspirated, and cells were resuspended in 100 µL medium, containing 16 µM liposomes. In control experiments, cells were incubated with medium containing 10 mM EDTA or 50 µg mL-1 mannan for 15 min at 4 °C, prior to liposome application. After 1 h incubation at 4 °C in the dark, cells were centrifuged at 500 x g for 3 min and the supernatant was discarded. Cells wer e resuspended in 200 µL ice-cold medium and analyzed by detecting the co-formulated Alexa 647 dye via flow cytometry with a 654 nm laser and a 670/14 nm filter (Attune Nxt, life technologies).
Flow cytometry data was processed using FlowJo (BD Bioscience). Mean fluorescence intensity (MFI) was further analyzed and plotted using GraphPad Prism (GraphPad […]
To monitor allosteric activation of DC-SIGN by glycomimetic 48, the described protocol was adjusted as follows. DC-SIGN+ Raji cells were plated in transparent conical-bottom 96 well microtiter plates (Nunc) in a volume of 100 µL medium. Plates were centrifuged at 500 x g for 3 minutes, supernatant was aspirated, and cell were resuspended in 25 µL medium supplemented with varying concentrations of monovalent carbohydrates or 0.5 mM 48. Homomultivalent liposomes carrying either natural carbohydrates or 48 were added at a final concentration of 16 µM. Liposome binding was subsequently quantified by measuring Alexa 647 fluorescence in flow cytometry experiments. Statistical significance by means of a student’s t-test was assessed based on averaged normalized MFIs from four biological replicates each conducted as technical duplicates. A p-value < 0.05 was set as significance cut-off.
In general terms: In flow cytometry, cells or beads pass a laser one at a time.

Series [1] addresses T1, Langerin ECD (Homo sapiens, UniProt Q9UJ71).
T1 construct: the trimeric Langerin extracellular domain (ECD) was; made in house; host or cells: E. coli BL21* (DE3)
The series can be described thus: 19F NMR reporter displacement assay (RDA), KI determination by titration. Format: binding. The note with it: for Ki: competitive titration, 0.1 mM reporter ligand 49, 10% DMSO. The protocol:
(§5) via SDS PAGE. The protein solution was aliquoted, snap frozen in liquid N2 and stored at -80°C until further usage.
(§6) NMR binding experiments – Langerin
(§7) General remarks. 19F R2-filtered NMR experiments were conducted on a PremiumCompact 600 MHz spectrometer (Agilent). Spectra were processed in MestreNova (Mestrelab Research) and data analysis was performed with OriginPro (OriginLab) . Experiments with the Langerin ECD were perf ormed at a receptor concentration of 50 μM in 25 mM Tris with 10% D 2O, 150 mM NaCl and 5 mM CaCl 2 […]
(§8) at pH 7.8 and 25°C. […]
CaCl2 at pH 7.0 and 25°C. TFA served as an internal reference at a concentration of 50 μM. Apparent transverse relaxation rates R 2,obs for the reporter ligand were determined using the CPMG pulse sequence as previously published. 6,30,31 […]
KI determination. KI values were determined as previously published for Langerin.6 Briefly, titration experiments were conducted at a concentration of 0.1 mM of reporter ligand 49 at five competitor concentrations [I]T (Table S5). […]

For the next series, the target named is T2, DC-SIGN ECD (Homo sapiens, UniProt Q9NNX6).
T2 construct: DC-SIGN extracellular domain (ECD); made in house; host or cells: E. coli BL21(DE3), pET30b; gene from GenScript
T2 sequence (Q9NNX6 59-404 limits assumed): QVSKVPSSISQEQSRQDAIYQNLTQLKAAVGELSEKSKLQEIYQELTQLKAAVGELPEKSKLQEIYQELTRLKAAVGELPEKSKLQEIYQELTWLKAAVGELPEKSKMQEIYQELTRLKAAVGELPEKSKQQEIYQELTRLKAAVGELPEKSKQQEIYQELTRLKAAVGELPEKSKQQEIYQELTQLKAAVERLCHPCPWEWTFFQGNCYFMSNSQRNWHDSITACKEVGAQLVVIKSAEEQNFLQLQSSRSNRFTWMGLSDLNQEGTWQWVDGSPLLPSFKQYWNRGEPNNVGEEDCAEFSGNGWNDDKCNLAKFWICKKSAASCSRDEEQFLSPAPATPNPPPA
Kind of series: 19F NMR reporter displacement assay transferred to DC-SIGN ECD. It counts as binding. The note with it: 0.1 mM reporter 49; for 48 estimated, receptor precipitation above 1 mM.

In series [2] the target is T3, Langerin CRD (Homo sapiens, UniProt Q9UJ71).
T3 construct: Langerin carbohydrate recognition domains (CRDs) were expressed insolubly in; made in house; host or cells: E. coli BL21* (DE3)
More on the design: method as in earlier work. The note with it: previously published values; ref 6 (SI); cited from earlier work.

The target in series [3] is T1, Langerin ECD. Kind of series: 19F R2-filtered NMR screening of the mannoside library (reporter displacement, single competitor concentration). Format: binding. The protocol:
as §5, §6, §7, §8
CaCl2 at pH 7.0 and 25°C. TFA served as an internal reference at a concentration of 50 μM. Apparent transverse relaxation rates R 2,obs for the reporter ligand were determined using the CPMG pulse sequence as previously published. 6,30,31 Screening of mannoside library . Estimated affinities KI,est were determined in competitive binding experiments at 0.1 mM of reporter ligand 49 at 0.1 mM using the Langerin ECD at a single competitor concentration as previously described.6 Here, receptor concentrations [P]T values were directly calculated from R2,max, the data point at 0.1 mM 49 in absence of competitor. Subsequently, KI values were estimated in a one parameter fit. The screening was conducted in presence of 0% to 10% DMSO at mannoside concentrations between 0.1 and 10 mM. […]

The target in series [4] is T3, Langerin CRD. The series can be described thus: 15N HSQC NMR titration, KD determination. Format: binding. The note with it: 10% DMSO. The protocol:
ppm. The acquisition time tacq was set to 2.0 s and the DPFGSE pulse sequence was utilized for solvent suppression.33 Receptor resonances were suppressed using a T1,rho filter at a relaxation time τ of 35 ms.
Epitope mapping. The binding epitope for 43 was determined at a concentration of 500 µM. For each spectrum 512 scans were recorded. The relaxation delay d 1 was set to 6 s and spectra were recorded at 5 different saturation time s tsat varying from 0.25 to 6.00 s. Equation 1 served to derive the STD effect STD for each analyzed resonance from the corresponding on - and off-resonance spectra.34 I0 represents the integral of a resonance in the off-resonance spectrum and Isat represents the integral of a resonance in the on-resonance spectrum.
The apparent saturation rate k sat and the maximal STD effect STDmax were derived from Equation 2 in a two-parameter fit.35 Standard errors were derived directly from the fitting procedures. These parameters were used to calculate the initial slope of the STD build-up curves STD’0 via Equation 3. STD’0 values were normalized and mapped on the corresponding ligand structure. Only resonances for which at least part of a multiplet was isolated were considered for the epitope mapping.
STD = STDmax(1 − eksattsat)
General remarks. 15N HSQC NMR experiments were conducted on an Ascend 700 MHz spectrometer (Bruker).36 Spectra were processed in NMRPipe.37 Data analysis was performed using CCPN Analysis, MatLab (MathWorks) and OriginPro.38 […]
KD determination. KD values were determined in titration experiments at six ligand concentrations [L]T. Samples were prepared via serial dilution. Chemical shift perturbations CSPs for Langerin CRD resonances in the fast or fast-to-intermediate exchange regime observed upon titration with ligand were calculated as previously described via Equation 4.40
A standard deviation σ of 0.02 ppm was previously determined for the measurement of chemical shifts in 15N HSQC NMR experiments with the Langerin CRD. […]

For another series, the system named is Langerin+ Raji cells. Kind of series: Liposome binding assay, flow cytometry. It counts as cell-based. The method, then:
as §1, §2, §3, §4
(§9) Flow cytometry data was processed using FlowJo (BD Bioscience). Mean fluorescence

The test system of series [5] is murine Dectin-1-expressing Raji cells. Kind of series: Liposome binding assay, flow cytometry. Format: cell-based. The method, then: as §1, §2, §3, §4, §9
The test system of series [6] is murine Langerin-expressing Raji cells. The series can be described thus: Liposome binding assay, flow cytometry. It counts as cell-based. The protocol:
as §1, §2, §3, §4, §9

Setting [7] is: calculated utilizing the KI value determined for 45.
Where [8] appears, read: calculated utilizing the KI value determined for 46.

Read-outs that look alike come from different tables or passages of the source.

The source of these data is publication PMC8603350, “A Remote Secondary Binding Pocket Promotes Heteromultivalent Targeting of DC-SIGN” (Journal of the American Chemical Society, 2021).

T3 sequence (Q9UJ71 202-320 limits assumed): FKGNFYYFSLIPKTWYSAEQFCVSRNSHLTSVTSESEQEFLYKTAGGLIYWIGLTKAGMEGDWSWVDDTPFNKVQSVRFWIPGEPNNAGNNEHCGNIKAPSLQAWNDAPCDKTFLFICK
T1 sequence (Q9UJ71 65-328 limits assumed): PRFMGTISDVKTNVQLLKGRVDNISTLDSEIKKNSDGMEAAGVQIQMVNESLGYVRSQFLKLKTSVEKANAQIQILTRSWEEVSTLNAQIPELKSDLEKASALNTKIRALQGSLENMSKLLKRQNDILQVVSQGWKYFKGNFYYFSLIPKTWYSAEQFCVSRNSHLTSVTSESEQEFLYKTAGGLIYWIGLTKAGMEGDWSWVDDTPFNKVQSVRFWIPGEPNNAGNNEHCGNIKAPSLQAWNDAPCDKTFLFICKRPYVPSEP
Procedure for DC-SIGN ECD: KI values were determined as previously described for Langerin and the DC-SIGN CRD.6 Briefly, competitive binding experiments were conducted with 49 at a concentration of 0.1 mM and varying competitor concentrations [I]T. KI and [P]T values were derived from Equation 8 in a two-parameter fit.
𝜃 = 𝑐𝑜𝑠−1 ( ) ,𝑎 = 𝐾𝐷 + 𝐾𝐼 + [𝐿]𝑇 + [𝐼]𝑇 − [𝑃]𝑇
𝑏 = ([𝐼]𝑇 − [𝑃]𝑇)𝐾𝐷 + ([𝐿]𝑇 − [𝑃]𝑇)𝐾𝐷 + 𝐾𝐼𝐾𝐷, 𝑐 = −𝐾𝐼𝐾𝐷[𝑃]𝑇
For KD determination from 19F NMR CSPs, samples and measurements were set up as described for 19F R2-filtered NMR but at a single relaxation time T = 0 s. CSP 19F, T were calculated from the chemical shift of the 19F resonance of 48 in the presence of protein δT at increasing ligand concentrations and the chemical shift in absence of protein δf at a concentration of 1 mM via Equation 4.
The KD value was calculated from CSP19F, T values in a two -parameter fit using Equation 10, using a fixed protein concentration [P] T and a CSP19F of 0 ppm as a lower bound. CSP19F,b corresponds to the top asymptote and was kept variable. As in Equation 9, pb represents the fraction of bound protein.

As for `C[C@H](O)[C@@H](O)[C@@H](O)[C@H](O)C=O` [Fuc, fucose, reference compound], the “effect of soluble compound on binding of 48 liposomes” value in the series on DC-SIGN+ Raji cells (soluble Fuc, liposomes with 1.26 mol % 48, p > 0.05, n = 4) was “did not increase”.
For orientation: Ki means a dissociation constant, usually derived from enzyme kinetics or from competition with a known ligand. A word on the Kd: it is the free concentration of one partner at which half of the binding sites on the other are occupied at equilibrium, for simple one-to-one binding. Take `OC[C@H]1OC(O)[C@@H](O)[C@@H](O)[C@@H]1O` (stereo partly shown) [Man, mannose, reference compound]: the Relative potency on Langerin ECD [1] (setting [7]) is listed as 2.2. At DC-SIGN ECD, the Ki is 2400 ± 800 µM. Also, the Kd on Langerin CRD [2] was 5800 ± 300 µM.
As to `O=C(O)c1ccc(-c2ccc(O[C@H]3O[C@H](CO)[C@@H](O)[C@H](O)[C@@H]3O)c(C(F)(F)F)c2)cc1` [compound 9], the potency estimated from few doses at Langerin ECD [3] (estimated at a single competitor concentration, 0.1 mM reporter ligand 49, 0% to 10% DMSO, read-out: KI,est) is 200 µM. In addition, the “affinity increase over reference molecule 1” value on Langerin ECD [3] (from KI,est) is 45 fold. The Relative potency is recorded as 44 on Langerin ECD [1] (setting [7]) and 57 on Langerin ECD [1] (setting [8]). On Langerin ECD [1], this compound yielded a Ki of 230 ± 30 µM. The compound further had a Kd at Langerin CRD [4] of 500 ± 200 µM.
On to `NCCS(=O)(=O)NC[C@H]1O[C@H](Oc2ccc(-c3ccc(C(=O)O)cc3)cc2C(F)(F)F)[C@@H](O)[C@@H](O)[C@@H]1O` [compound 42], for which the “binding of homomultivalent liposomes decorated with 2 mol% 42” value is recorded as “binding preference towards DC-SIGN” with DC-SIGN+ Raji cells (2 mol%, formulations not long-term stable, unspecific binding); “negligible” in the series on Langerin+ Raji cells; “negligible” in series [5]; “negligible” in [6].
Take `CC(=O)NCCS(=O)(=O)NC[C@H]1O[C@H](Oc2ccc(-c3ccc(C(=O)O)cc3)cc2C(F)(F)F)[C@@H](O)[C@@H](O)[C@@H]1O` [compound 43]: the Relative potency at Langerin ECD [1] (setting [7]) is listed as 40. For the same compound, the Ki on Langerin ECD [1] was determined as 250 ± 70 µM. Also, the “affinity increase over Man reference 45” value on Langerin ECD [1] (from KI) was determined as 40 fold. Besides, the affinity at Langerin CRD [4], expressed as Kd, was 460 ± 90 µM.
Consider `CC(=O)NCCO[C@H]1O[C@H](CO)[C@@H](O)[C@H](O)[C@@H]1O` [compound 45, reference compound], for which the Relative potency on Langerin ECD [1] (setting [7]) is given as 1.0.
Take `COC1OC(CO)C(O)C(O)C1O` (stereo not shown) [compound 46, reference compound]: on Langerin ECD [1] (setting [8]), the Relative potency is recorded as 1.0. At Langerin ECD [1], this compound returned a Ki of 13000 ± 3000 µM. The Kd on Langerin CRD [4] came out at 7000 ± 2000 µM.
